Source: US4952580A, “Pesticidal polyhaloalkene derivatives” (priority 1988, dated 1990)
Read-outs that look alike come from different tables or passages of the source.

Experiments:
[1] = tested on: root-knot nematode (Meloidogyne incognita); test: Initial Root-Knot Nematicidal Activity; assay type: in vivo; conditions: 336 h, read-out: Percent Control; for pest or weed control at 0.078 ppm: Table 2, Application Rate 0.078 ppm; for pest or weed control at 0.156 ppm: Table 2, Application Rate 0.156 ppm
Method in brief: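 Compound incorporated into Meloidogyne incognita-infested soil at 10 ppm to 0.078 ppm, then planted with tomato or cucumber seedlings. Root galling scored two weeks after planting as a knot index and converted to percent control, given as averages.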

root-knot nematode [2] = test: Residual Root-Knot Nematicidal Activity; assay type: in vivo, Meloidogyne incognita; conditions: read-out: Percent Control
Method in brief: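 Soil received 5% dust formulation at 5 and 10 ppm test compound and was held in a greenhouse, then infested with root-knot nematode eggs and larvae at 1, 2 and 4 weeks post-treatment. Cucumber or tomato seedlings were planted and scored about two weeks after infestation for Knot Index and Percent Control.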

stunt nematode = test: Stunt Nematode Test; assay type: in vivo
lesion nematode = test: Lesion Nematode Test; assay type: in vivo; conditions: read-out: Percent Control
Method in brief: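 Run as the stunt nematode test but on pea seedlings; compounds applied as dust formulations (initial and residual activity) or acetone/water formulations (systemic activity), with untreated samples as reference. Percent control derived by formula.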

root-knot nematode [3] = test: Soil Mobility against root-knot nematode; assay type: in vivo, Meloidogyne incognita; conditions: 336 h
Method in brief: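 Soil mobility of the nematicidal test material was evaluated by placing treated, nematode-infested soil in 8 cm plastic pots stacked above two or more pots of untreated infested soil, each containing a 10 cm^3 sand layer and filter paper discs. Fifteen cm of water was dripped through, pots drained 16-18 hours, then were planted with cucumber or tomato seedlings and scored for Percent Control.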

corn seedling = test: Phytotoxicity noted in Stunt Nematode Test; assay type: in vivo; design: key: *: Some phytotoxicity; conditions: Table 4a; rate 5 ppm
Excerpt: The procedure was substantially the same as in the initial root-knot nematode tests described above except that rates of application of formulated compound were 2.5 and 5 ppm in soil containing a corn seedling, with subsequent inoculation of the soil with combined larvae and adult stunt nematodes. The samples were evaulated approximately four weeks after infestation. The results (Tables 4 and 4a appended) indicate good control at the test application rates as compared with untreated samples where no control was observed. "Percent control" means the difference between average population counts between untreated and treated samples, divided by average population count of untreated sample, multiplied by 100.

Caenorhabditis elegans = test: C. Elegans Nematode Screening Test and Evaluation (in-vitro); conditions: Caenorhabditis elegans
Method in brief: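 Worms (10-15 per well) in buffer with E. coli food, ampicillin and mycostatin; compound added in DMSO, 2-3 replicates per rate. Incubated 5-6 days at 20° C. Population development scored against untreated wells, noting effects such as reduced egg hatch or molting disruption.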

cyst nematode = test: Cyst Nematode Test; assay type: in vivo; conditions: read-out: Percent Control
Protocol: (§1) Compounds of this invention were tested as follows for nematicidal and anthelmintic activity as dust formulations (initial and residual activity) and as acetone/water formulations (systemic activity). The formulations are described above.
The procedures was substantially the same as described in the stunt nematode test except soybean seedlings were used. "Percent Control" (Table 6 appended) is as defined in the stunt nematode test results.

root-knot nematode [4] = test: Systemic Activity (basipetal, foliar spray) against root-knot nematode; assay type: in vivo, Meloidogyne incognita; conditions: 336 h, read-out: Percent Control; for pest or weed control at 1250 ppm: Table 8, rate 1250 ppm; for pest or weed control at 2000 ppm: Table 8, rate 2000 ppm
Protocol: as §1
Compounds of the invention were tested for basipetal systemic activity against the root-knot nematode. In this test, tomato plants are grown in 10.2 cm diameter fiber pots containing steam-pasteurized soil mix (50%, soil, 50% sand) until 4-6 true leaves appear. Three of the pots are then placed on a turntable in a spray hood and the plants sprayed with 50 ml of water/acetone solution containing the test compound. The soil surface is covered during the spraying to prevent spraying of the soil. After treatment, the potted plants are placed in a lighted drying chamber. The plants are then grown in a growth chamber at 25° C. for three days and inoculated with a standard nematode culture by incorporating the inoculum into the top cm of soil in the pots. The plants are returned to the growth chamber for about two weeks at which time the pots are allowed to dry until the plants begin to wilt. The roots are shaken free of soil and the degree of galling (swelling) noted as compared to galling of untreated control plants. The results are expressed as Knot Index and Percent Control as defined in the initial root-knot nematode activity tests reported above in Table 2.

[5] = Table 2, Application Rate 0.312 ppm
[6] = Table 2, Application Rate 0.625 ppm
[7] = Table 2, Application Rate 1.25 ppm
[8] = Table 2, Application Rate 2.5 ppm
[9] = 168 h, Table 3a, 5% dust, 5 ppm, inoculation 1 week post-treatment
[10] = 336 h, Table 3a, 5% dust, 5 ppm, inoculation 2 weeks post-treatment
[11] = 672 h, Table 3a, 5% dust, 5 ppm, inoculation 4 weeks post-treatment
[12] = 672 h, Table 4a; rate 5 ppm; read-out: Percent Control
[13] = Table 7a, 5% dust, 5 ppm, BOTTOM container, read-out: Percent Control
[14] = Table 7a, 5% dust, 5 ppm, MIDDLE container, read-out: Percent Control
[15] = Table 7a, 5% dust, 5 ppm, TOP container, read-out: Percent Control
[16] = Table 9 screen, 5 ppm, read-out: Percent Inhibition of Reproduction
[17] = Table 9 screen, 5 ppm, read-out: Percent Mortality
[18] = read-out: Percent Control, Table 7a, 5% dust, 5 ppm, MIDDLE container

Compound | pest or weed control at 0.312 ppm [1, 5] | pest or weed control at 0.625 ppm [1, 6] | pest or weed control at 1.25 ppm [1, 7] | pest or weed control at 2.5 ppm [1, 8] | pest or weed control at 5 ppm (root-knot nematode [2]; [9]) | pest or weed control at 5 ppm (root-knot nematode [2]; [10]) | pest or weed control at 5 ppm (root-knot nematode [2]; [11]) | pest or weed control at 5 ppm (stunt nematode; [12]) | pest or weed control at 2.5 ppm (lesion nematode; Table 5, rate 2.5 ppm) | pest or weed control at 5 ppm (root-knot nematode [3]; [13]) | pest or weed control at 5 ppm (root-knot nematode [3]; [14]) | pest or weed control at 5 ppm (root-knot nematode [3]; [15]) | inhibition at 5 ppm (Caenorhabditis elegans; [16]) | mortality at 5 ppm (Caenorhabditis elegans; [17]) | pest or weed control at 5 ppm (cyst nematode; Table 6, rate 5 ppm) | pest or weed control at 5 ppm (root-knot nematode [2]; 672 h) | pest or weed control at 0.078 ppm [1] | pest or weed control at 0.156 ppm [1] | pest or weed control at 2000 ppm (root-knot nematode [4]; foliar) | other results
FC(F)=C(F)CCSc1nnc(Cc2ccc(F)cc2F)o1 [Compound 46, 2-(2,4-difluorophenylmethyl)-5-(3,4,4-trifluoro-3-butenylthio)-1,3,4-oxadiazole] | 85% | 98% | 98% | 99% | 99% | 100% | 99% | 65% | 77% | 78% | 97% | 96% |  |  |  |  |  |  |  | Some phytotoxicity (corn seedling): *
FC(F)=C(F)CCSc1nnc(Cc2ccc(F)cc2)o1 [Compound 45, 2-(4-fluorophenylmethyl)-5-(3,4,4-trifluoro-3-butenylthio)-1,3,4-oxadiazole] |  | 99% | 99% | 99% | 99% | 100% | 98% | 80% | 41% | 83% | 97% | 98% | 25% | 0% |  |  |  |  |  | pest or weed control at 0.312 ppm [1]: 95%; Some phytotoxicity (corn seedling): *
FC(F)=C(F)CCSc1nnc(Cc2ccccc2F)o1 [Compound 44, 2-(2-fluorophenylmethyl)-5-(3,4,4-trifluoro-3-butenylthio)-1,3,4-oxadiazole] | 50% | 76% | 86% | 98% | 100% | 100% | 100% | 75% | 88% | 96% | 100% | 100% | 25% | 0% | 59% |  |  |  |  | 
FCCSc1nnc(SCCC(F)=C(F)F)s1 [Compound 27, 2-(2-fluoroethylthio)-5-(3,4,4-trifluoro-3-butenylthio)-1,3,4-thiadiazole] |  |  |  |  |  |  |  |  |  |  |  |  |  | 0% |  | 99% |  |  |  | pest or weed control at 0.312 ppm [1]: 31%; pest or weed control at 0.625 ppm [1]: 79%; pest or weed control at 1.25 ppm [1]: 99%; pest or weed control at 2.5 ppm [1]: 100%; pest or weed control at 5 ppm (root-knot nematode [2]; 168 h): 99%; pest or weed control at 5 ppm (root-knot nematode [2]; 336 h): 97%; pest or weed control at 5 ppm (stunt nematode; 672 h; Table 4a; rate 5 ppm; read-out: Percent Control): 62%; pest or weed control at 2.5 ppm (lesion nematode): 63%; pest or weed control at 5 ppm (cyst nematode): 57%; pest or weed control at 5 ppm (root-knot nematode [3]; read-out: Percent Control, Table 7a, 5% dust, 5 ppm, BOTTOM container): 100%; pest or weed control at 5 ppm (root-knot nematode [3]; [18]): 100%; pest or weed control at 5 ppm (root-knot nematode [3]; read-out: Percent Control, Table 7a, 5% dust, 5 ppm, TOP container): 99%; inhibition at 5 ppm (Caenorhabditis elegans; read-out: Percent Inhibition of Reproduction): 38%
C=CCSc1nnc(SCCC(F)=C(F)F)s1 [Compound 31, 2-(2-propenylthio)-5-(3,4,4-trifluoro-3-butenylthio)-1,3,4-thiadiazole] |  | 78% | 96% | 99% | 97% | 97% |  | 52% | 11% | 50% | 86% | 98% | 38% | 0% | 7% | 95% | 0% | 13% | 71% | pest or weed control at 1250 ppm (root-knot nematode [4]; foliar): 0%
FC(F)=C(F)CCSc1nnc(SCc2cccs2)s1 [Compound 36, 2-(2-thienylmethylthio)-5-(3,4,4-trifluoro-3-butenylthio)-1,3,4-thiadiazole] | 69% | 96% | 99% | 100% | 98% | 99% |  |  |  | 0% |  | 97% |  |  | 37% | 95% | 0% | 25% | 97% | pest or weed control at 1.25 ppm (lesion nematode; Table 5, rate 1.25 ppm): 2%; pest or weed control at 0.625 ppm (lesion nematode; Table 5, rate .625 ppm): 0%; pest or weed control at 5 ppm (root-knot nematode [3]; [18]): 17%; pest or weed control at 1250 ppm (root-knot nematode [4]): 17%
O=[N+]([O-])c1ccc(CSc2nnc(SCCC(F)=C(F)F)s2)cc1 [Compound 35, 2-(4-nitrophenylmethylthio)-5-(3,4,4-trifluoro-3-butenylthio)-1,3,4-thiadiazole] | 67% |  | 98% | 100% | 99% | 96% | 84% | 77% |  | 0% | 50% | 99% | 100% | 100% | 0% |  | 0% | 6% | 0% | mortality at 5 ppm (Caenorhabditis elegans; Table 10 evaluation, 5 ppm, read-out: Percent Mortality): 100%; inhibition at 1.25 ppm (Caenorhabditis elegans; Table 10 evaluation, 1.25 ppm, read-out: Percent Inhibition of Reproduction): 100%; mortality at 1.25 ppm (Caenorhabditis elegans; Table 10 evaluation, 1.25 ppm, read-out: Percent Mortality): 100%; inhibition at 2.5 ppm (Caenorhabditis elegans; Table 10 evaluation, 2.5 ppm, read-out: Percent Inhibition of Reproduction): 100%; mortality at 2.5 ppm (Caenorhabditis elegans; Table 10 evaluation, 2.5 ppm, read-out: Percent Mortality): 100%
